# Results reported in patent US20030211636A1, “Point of care test for measurement of therapeutic drug levels” (Pfizer Inc., priority 2002, published 2003).
# Read-outs that look alike come from different tables or passages of the source.
# What was measured:
# [1] = Stability of Compound 122 stock solution; format: physicochemical; details: HCl salt, 100 μg/ml in 1:1 Methanol/Water, stored at −20° C.
# Procedure: (§1) Stock solutions of Compound 122-HCl salt and internal standard 2-difluoromethoxy-5-trifluoromethoxy-benzyl)-(2-phenyl-piperidin-3-yl)-amine] HCl salt (hereinafter referred to as IS, for internal standard) were prepared at concentrations of 100 μg/ml in 1:1 Methanol/Water and stored at −20° C. […] Serial dilutions of the stock solutions were prepared in 1:1 Methanol/Water as needed. Standard curve samples were freshly prepared using serial dilutions of stock so that equivalent additions produced 0.1, 0.2, 0.5, 2, 10, and 50 ng/ml solutions in Control Human Saliva (CHS). Quality control samples were prepared from a different stock solution similarly at 0.15, 5, and 40 ng/ml in CHS.
# [2] = Compound 122 saliva concentrations in healthy human subjects after oral administration (HPLC-MS/MS); format: in vivo; details: for concentration at 2 h / concentration at 4 h / concentration at 8 h / concentration at 24 h / concentration at 0 h: human, saliva, po
# Procedure: as §1
# Aliquots (50 μl) of Human saliva, 200 μl of 0.1% Ammonium Hydroxide and 50 μl of 2.0 ng/ml IS were added, in sequence, to one well of a 96 well block. The plate was centrifuged briefly to consolidate the above contents and placed onto a TomTec Quadra 96. An automatic program was used that performs the following steps: conditions a Waters brand 10 mg Oasis HLB plate with 100 μl Methanol and then 200 μl 50/50 Methanol/Water (containing 2% v/v Ammonium Hydroxide), transfers the 300 μl of sample to the plate, washes the plate with 400 μl of 50/50 Methanol/Water (containing 2% v/v Ammonium Hydroxide) and then elutes the drug and IS into a clean 96 deep well block with 200 μl of 70/30 Methanol/Water (containing 2% v/v Acetic Acid). The eluent was isolated, evaporated to dryness under a stream of Nitrogen, and reconstituted in 100 μl 60/40 Methanol/10 mM Ammonium Acetate (both containing 0.05% Formic Acid) and vortexed for approximately 30 seconds. The plate was then centrifuged for ˜1 minute at about 3000 RPM. Injection volumes introduced into HPLC system were typically […].
# The mobile phase was a binary mixture (60/40) of Methanol and 10 mM Ammonium Acetate (both containing 0.05% Formic Acid). The analytical column was a Phenomenex LUNA Phenyl Hexyl, 5μ, 2.00×50 mm LC/MS column preceded by a 2.0 micron stainless steel precolumn filter. A Hewlett Packard 1100 series quaternary pump was used and a mobile phase flow rate of 0.30 ml/min was maintained. A CTC Analytics (LEAP) HTS PAL autosampler injected the 10 μl sample aliquots onto the column at approximately 3 minute intervals.
# The analysis was performed on a Perkin Elmer SCIEX API 3000 triple quadrupole mass spectrometer operated in the positive ion mode. The effluent from the HPLC column was directly introduced into the TurbolonSpray ion source, which was operated at 1500V with a temperature of 375° C. and 6 L/sec nitrogen gas. Nitrogen nebulizer gas was set to 10 and curtain gas was set to 9. Analyte and IS responses were measured using multiple reaction monitoring (MRM). Protonated molecular ions for drug (m/z 381.4), and I.S. (m/z 417.1) were dissociated by collision with nitrogen. Collision gas (CAD) was set to 5 and a collision energy of 32 eV was used. Product ions at m/z 160.0 were monitored for both drug and IS runs.
# Subjects were divided into three groups of six individuals: CYP2D6 extensive metabolizers (including one “intermediate” metabolizer), CYP2D6 extensive metabolizers receiving concurrent paroxetine as an inhibitor of CYP2D6 (also including one intermediate metabolizer), and CYP2D6 poor metabolizers. […] Saliva samples were collected on the first day of each study leg.
# Samples were subjected to a solid phase extraction procedure followed by chromatography and analysis on a Sciex API3000 tandem quadrupole mass spectrometer.
# Mean values were calculated in those cases in which half or greater of the individual values were >LLOQ. A value of zero was used in those cases wherein concentrations were <LLOQ. […] Cav is defined by AUC (0-24 hr)/24.
# [3] = 10 mg, EM + paroxetine, Day 1, 10 mg q.d. oral, read-out: Mean saliva concentration, EM + paroxetine, Mean ± SD
# [4] = 10 mg, EM + paroxetine, Day 6, 10 mg b.i.d. oral, read-out: Mean saliva concentration, EM + paroxetine, Mean ± SD
# [5] = 10 mg, EM, Day 1, 10 mg q.d. oral, read-out: Mean saliva concentration, EM, Mean ± SD
# [6] = 10 mg, EM, Day 6, 10 mg b.i.d. oral, read-out: Mean saliva concentration, EM, Mean ± SD
# [7] = 10 mg, PM, Day 1, 10 mg q.d. oral, read-out: Mean saliva concentration, PM, Mean ± SD
# [8] = 10 mg, PM, Day 6, 10 mg b.i.d. oral, read-out: Mean saliva concentration, PM, Mean ± SD
# [9] = 30 mg, EM + paroxetine, Day 11, 30 mg q.d. oral, read-out: Mean saliva concentration, EM + paroxetine, Mean ± SD
# [10] = 30 mg, EM + paroxetine, Day 16, 30 mg b.i.d. oral, read-out: Mean saliva concentration, EM + paroxetine, Mean ± SD
# [11] = 30 mg, EM, Day 11, 30 mg q.d. oral, read-out: Mean saliva concentration, EM, Mean ± SD
# [12] = 30 mg, EM, Day 16, 30 mg b.i.d. oral, read-out: Mean saliva concentration, EM, Mean ± SD
# [13] = 30 mg, PM, Day 11, 30 mg q.d. oral, read-out: Mean saliva concentration, PM, Mean ± SD
# [14] = 30 mg, PM, Day 16, 30 mg b.i.d. oral, read-out: Mean saliva concentration, PM, Mean ± SD
# [15] = 100 mg, EM + paroxetine, Day 21, 100 mg q.d. oral, read-out: Mean saliva concentration, EM + paroxetine, Mean ± SD
# [16] = 100 mg, EM, Day 21, 100 mg q.d. oral, read-out: Mean saliva concentration, EM, Mean ± SD
# [17] = 100 mg, PM, Day 21, 100 mg q.d. oral, read-out: Mean saliva concentration, PM, Mean ± SD
smiles,measurement,setting,value
"COc1ccc(OC(F)(F)F)cc1CNC1CCCNC1c1ccccc1 (centres unmarked) [Compound 122, (2-methoxy-5-trifluoromethoxy-benzyl)-(2-phenyl-piperidin-3-yl)-amine]",stock solution stable over period,[1],≥ 93 days
same,mean salivary Cav,"[2]; 30 mg b.i.d., Cav = AUC (0-24 hr)/24",4.04 ng/mL
same,serum Cav corresponding to salivary Cav,"[2]; 30 mg b.i.d., salivary Cav divided by fu",58 ng/mL
same,concentration at 2 h,[2]; [3],0.5 ± 0.462 ng/mL
same,concentration at 4 h,[2]; [3],0.632 ± 0.773 ng/mL
same,concentration at 8 h,[2]; [3],0.533 ± 0.722 ng/mL
same,concentration at 24 h,[2]; [3],0.192 ± 0.332 ng/mL
same,concentration at 0 h,[2]; [4],3.21 ± 5.09 ng/mL
same,concentration at 2 h,[2]; [4],1.92 ± 1.83 ng/mL
same,concentration at 4 h,[2]; [4],2.97 ± 2.16 ng/mL
same,concentration at 8 h,[2]; [4],5.68 ± 9.27 ng/mL
same,concentration at 24 h,[2]; [4],2.16 ± 1.27 ng/mL
same,concentration at 2 h,[2]; [5],0.545 ± 0.518 ng/mL
same,concentration at 4 h,[2]; [5],0.524 ± 0.293 ng/mL
same,concentration at 8 h,[2]; [5],0.313 ± 0.164 ng/mL
same,concentration at 0 h,[2]; [6],0.27 ± 0.454 ng/mL
same,concentration at 2 h,[2]; [6],0.541 ± 0.465 ng/mL
same,concentration at 4 h,[2]; [6],0.987 ± 0.915 ng/mL
same,concentration at 8 h,[2]; [6],0.805 ± 1.18 ng/mL
same,concentration at 24 h,[2]; [6],0.418 ± 0.426 ng/mL
same,concentration at 2 h,[2]; [7],0.517 ± 0.261 ng/mL
same,concentration at 4 h,[2]; [7],2.23 ± 1.06 ng/mL
same,concentration at 8 h,[2]; [7],2.31 ± 1.32 ng/mL
same,concentration at 24 h,[2]; [7],1.05 ± 0.558 ng/mL
same,concentration at 0 h,[2]; [8],2.93 ± 2.45 ng/mL
same,concentration at 2 h,[2]; [8],2.85 ± 2.18 ng/mL
same,concentration at 4 h,[2]; [8],4.69 ± 3.28 ng/mL
same,concentration at 8 h,[2]; [8],3.23 ± 2.8 ng/mL
same,concentration at 24 h,[2]; [8],5.51 ± 4.39 ng/mL
same,concentration at 0 h,[2]; [9],3.86 ± 1.57 ng/mL
same,concentration at 2 h,[2]; [9],5.98 ± 2.9 ng/mL
same,concentration at 4 h,[2]; [9],9.51 ± 3.07 ng/mL
same,concentration at 8 h,[2]; [9],6.3 ± 1.69 ng/mL
same,concentration at 24 h,[2]; [9],5.59 ± 2.28 ng/mL
same,concentration at 0 h,[2]; [10],6.16 ± 4.58 ng/mL
same,concentration at 2 h,[2]; [10],9.11 ± 5.4 ng/mL
same,concentration at 4 h,[2]; [10],10 ± 6 ng/mL
same,concentration at 8 h,[2]; [10],9.69 ± 4.74 ng/mL
same,concentration at 24 h,[2]; [10],9.67 ± 5.91 ng/mL
same,concentration at 0 h,[2]; [11],1.16 ± 1.81 ng/mL
same,concentration at 2 h,[2]; [11],3.07 ± 2.77 ng/mL
same,concentration at 4 h,[2]; [11],4.03 ± 4.1 ng/mL
same,concentration at 8 h,[2]; [11],3.18 ± 2.99 ng/mL
same,concentration at 24 h,[2]; [11],1.92 ± 3.13 ng/mL
same,concentration at 0 h,[2]; [12],2.44 ± 4.17 ng/mL
same,concentration at 2 h,[2]; [12],2.91 ± 2.49 ng/mL
same,concentration at 4 h,[2]; [12],4.57 ± 3.03 ng/mL
same,concentration at 8 h,[2]; [12],3.44 ± 3.67 ng/mL
same,concentration at 24 h,[2]; [12],5.08 ± 7.08 ng/mL
same,concentration at 0 h,[2]; [13],8.31 ± 6.8 ng/mL
same,concentration at 2 h,[2]; [13],6.96 ± 3.73 ng/mL
same,concentration at 4 h,[2]; [13],11.1 ± 8.5 ng/mL
same,concentration at 8 h,[2]; [13],14 ± 9.7 ng/mL
same,concentration at 24 h,[2]; [13],11.8 ± 9.3 ng/mL
same,concentration at 0 h,[2]; [14],15 ± 10.9 ng/mL
same,concentration at 2 h,[2]; [14],11.4 ± 6.5 ng/mL
same,concentration at 4 h,[2]; [14],12.9 ± 7.5 ng/mL
same,concentration at 8 h,[2]; [14],13.3 ± 9.9 ng/mL
same,concentration at 24 h,[2]; [14],21.5 ± 18.4 ng/mL
same,concentration at 24 h,"[2]; 100 mg q.d., EM + paroxetine, Day 21, 100 mg q.d. oral, read-out: Mean saliva concentration, EM + paroxetine, Mean ± SD",15.7 ± 8.8 ng/mL
same,concentration at 24 h,"[2]; 100 mg q.d., EM, Day 21, 100 mg q.d. oral, read-out: Mean saliva concentration, EM, Mean ± SD",12.5 ± 15.4 ng/mL
same,concentration at 24 h,"[2]; 100 mg q.d., PM, Day 21, 100 mg q.d. oral, read-out: Mean saliva concentration, PM, Mean ± SD",46.4 ± 27.1 ng/mL
same,concentration at 0 h,[2]; [15],12.2 ± 2.7 ng/mL
same,concentration at 2 h,[2]; [15],35.5 ± 24.7 ng/mL
same,concentration at 4 h,[2]; [15],44.1 ± 32.3 ng/mL
same,concentration at 8 h,[2]; [15],27.2 ± 10 ng/mL
same,concentration at 0 h,[2]; [16],6.94 ± 6.81 ng/mL
same,concentration at 2 h,[2]; [16],19.1 ± 16.6 ng/mL
same,concentration at 4 h,[2]; [16],21.2 ± 13.6 ng/mL
same,concentration at 8 h,[2]; [16],14.6 ± 8.6 ng/mL
same,concentration at 0 h,[2]; [17],32.9 ± 17.1 ng/mL
same,concentration at 2 h,[2]; [17],23.1 ± 12.1 ng/mL
same,concentration at 4 h,[2]; [17],46.2 ± 29.1 ng/mL
same,concentration at 8 h,[2]; [17],41.3 ± 26.2 ng/mL
